The values that follow come from ChEMBL document CHEMBL5241097, “Synthetically-tailored and nature-derived dual COX-2/5-LOX inhibitors: Structural aspects and SAR” (Eur J Med Chem, 2021).

For orientation: pIC50 means the IC50 on a negative log10 scale, so that one unit is a factor of ten. As a reminder, the IC50 is the concentration at which inhibition is half-maximal.

Molecules are shown by their SMILES. pIC50: −log10 of the molar value. ≈ marks a conversion by molar mass, not a printed value.

For assay [1], the target named is T1, Polyunsaturated fatty acid 5-lipoxygenase (Homo sapiens, UniProt P09917).
T1 sequence (P09917 whole entry): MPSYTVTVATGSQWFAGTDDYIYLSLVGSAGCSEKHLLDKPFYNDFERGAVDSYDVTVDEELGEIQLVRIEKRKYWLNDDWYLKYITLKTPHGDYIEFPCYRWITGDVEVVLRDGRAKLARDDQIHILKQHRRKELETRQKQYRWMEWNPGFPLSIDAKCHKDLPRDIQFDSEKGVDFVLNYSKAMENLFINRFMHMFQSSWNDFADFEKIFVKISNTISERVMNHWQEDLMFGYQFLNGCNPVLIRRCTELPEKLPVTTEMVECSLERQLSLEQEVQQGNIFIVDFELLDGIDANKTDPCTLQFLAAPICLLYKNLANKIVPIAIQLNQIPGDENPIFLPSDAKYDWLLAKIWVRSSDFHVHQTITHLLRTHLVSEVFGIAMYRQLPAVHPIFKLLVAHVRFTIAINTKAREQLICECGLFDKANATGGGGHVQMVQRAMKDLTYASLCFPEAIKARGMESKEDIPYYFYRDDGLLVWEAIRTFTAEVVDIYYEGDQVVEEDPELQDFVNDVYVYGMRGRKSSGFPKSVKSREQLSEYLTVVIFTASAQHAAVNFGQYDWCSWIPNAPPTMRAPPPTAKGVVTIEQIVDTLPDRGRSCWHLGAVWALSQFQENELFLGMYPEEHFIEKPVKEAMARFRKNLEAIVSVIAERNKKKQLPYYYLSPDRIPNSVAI
As to the kind of experiment: Inhibition of recombinant human 5-LOX using arachidonic acid as substrate preincubated for 10 mins followed by substrate addition and measured after 10 mins by ELISA.

The target in assay [2] is T2, Prostaglandin G/H synthase 2 (Homo sapiens, UniProt P35354).
T2 sequence (P35354 whole entry): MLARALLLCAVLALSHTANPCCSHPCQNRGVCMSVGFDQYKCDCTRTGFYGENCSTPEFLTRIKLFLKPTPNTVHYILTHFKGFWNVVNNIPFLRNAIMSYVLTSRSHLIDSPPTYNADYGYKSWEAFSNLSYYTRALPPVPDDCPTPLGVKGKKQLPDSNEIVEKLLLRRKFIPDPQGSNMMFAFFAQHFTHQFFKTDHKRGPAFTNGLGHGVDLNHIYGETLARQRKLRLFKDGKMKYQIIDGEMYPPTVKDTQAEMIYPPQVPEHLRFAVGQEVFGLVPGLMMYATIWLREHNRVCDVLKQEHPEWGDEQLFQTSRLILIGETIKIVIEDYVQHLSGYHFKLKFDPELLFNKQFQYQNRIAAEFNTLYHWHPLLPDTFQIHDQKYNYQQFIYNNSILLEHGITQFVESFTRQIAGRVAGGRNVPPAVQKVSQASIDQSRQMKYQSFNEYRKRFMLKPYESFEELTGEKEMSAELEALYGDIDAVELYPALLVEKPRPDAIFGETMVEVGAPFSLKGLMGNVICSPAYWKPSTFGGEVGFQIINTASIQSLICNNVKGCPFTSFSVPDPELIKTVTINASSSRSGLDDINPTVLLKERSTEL
As to the kind of experiment: Inhibition of recombinant human COX-2 using arachidonic acid as substrate preincubated for 5 mins followed by substrate addition and measured after 20 mins by ELISA.

Assay [3] concerns the target T1, Polyunsaturated fatty acid 5-lipoxygenase. As to the kind of experiment: Inhibition of human 5-LOX by colorimetric assay.
Assay [4] concerns the target T2, Prostaglandin G/H synthase 2. As to the kind of experiment: Inhibition of COX-2 (unknown origin) by colorimetric method.
A further assay has as its system DLD-1. Kind of assay: Anticancer activity against human DLD-1 cells assessed as cell growth inhibition incubated for 3 hrs by Sulforhodamine B assay. Type of assay: functional, cell-based. The following applies: DLD-1, 3 h. Background: In SRB staining, fixed cells bind dye roughly in proportion to their protein.
Assay [5] deals with T2, Prostaglandin G/H synthase 2. As to the kind of experiment: Inhibition of COX-2 (unknown origin) by enzyme immune assay.
In a further assay the test system is MCF7. As to the kind of experiment: Anticancer activity against human MCF7 cells assessed as cell growth inhibition incubated for 3 hrs by Sulforhodamine B assay. The following applies: MCF7, 3 h. The assay is classed as functional, cell-based.
Assay [6] concerns the target T3, Prostaglandin G/H synthase 1 (Homo sapiens, UniProt P23219). As to the kind of experiment: Inhibition of COX-1 (unknown origin) by enzyme immune assay.
Assay [7] has as its target T1, Polyunsaturated fatty acid 5-lipoxygenase. Kind of assay: Inhibition of 5-LOX (unknown origin) by spectrophotometric method.
Assay [8] can be described thus: Antioxidant activity assessed as DPPH radical scavenging activity by spectrophotometric analysis. Type of assay: functional. For orientation: Loss of DPPH colour is used to gauge radical scavenging.
In assay [9] the target is T2, Prostaglandin G/H synthase 2. Kind of assay: Inhibition of COX-2 (unknown origin) by 2,7-dichlorofluorescein dye based spectrophotometric method.
Assay [10] has as its target T3, Prostaglandin G/H synthase 1. Kind of assay: Inhibition of human COX-1 using arachidonic acid as substrate preincubated for 10 mins followed by substrate addition and measured after 2 mins by ELISA. Background: ELISA stands for enzyme-linked immunosorbent assay.
The next assay is filed under the species Homo sapiens. Kind of assay: Selectivity index, ratio of IC50 for inhibition of human COX1 to IC50 for inhibition of human COX2.
Assay [11] can be described thus: Inhibition of potato 5-LOX using linoleic acid as substrate preincubated for 5 mins followed by substrate addition and measured after 5 mins by spectrophotometric assay. Also on record: species or system Solanum tuberosum.
The subject of a further assay is Rattus norvegicus. Kind of assay: Antiinflammatory activity in Wistar rat assessed as reduction in carragenan-induced paw edema at 10 mg/kg, po for 7 days followed by carrageenan stimulation and measured upto 6 hrs by vernier caliper method. Type of assay: functional. Also noted: scale not given: the % may be the effect or the level left. The note with it: time 7 day.

T3 sequence (P23219 whole entry): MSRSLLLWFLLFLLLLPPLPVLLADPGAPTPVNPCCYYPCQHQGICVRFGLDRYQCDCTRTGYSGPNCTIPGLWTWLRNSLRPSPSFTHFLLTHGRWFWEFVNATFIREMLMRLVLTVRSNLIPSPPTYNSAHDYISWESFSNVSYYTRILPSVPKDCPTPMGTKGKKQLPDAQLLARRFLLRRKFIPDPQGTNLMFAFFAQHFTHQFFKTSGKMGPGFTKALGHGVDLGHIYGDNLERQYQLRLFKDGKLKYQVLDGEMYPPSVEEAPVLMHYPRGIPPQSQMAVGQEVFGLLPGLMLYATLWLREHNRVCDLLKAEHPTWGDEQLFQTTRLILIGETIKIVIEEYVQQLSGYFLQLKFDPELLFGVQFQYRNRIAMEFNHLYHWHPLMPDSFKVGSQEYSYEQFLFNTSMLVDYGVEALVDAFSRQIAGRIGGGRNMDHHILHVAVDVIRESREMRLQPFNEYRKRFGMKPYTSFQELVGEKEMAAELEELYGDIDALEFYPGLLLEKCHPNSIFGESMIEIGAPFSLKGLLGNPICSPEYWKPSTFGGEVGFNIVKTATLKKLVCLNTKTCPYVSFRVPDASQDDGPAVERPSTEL

On to `COc1cc(O)cc(/C=C/c2ccc(O)cc2)c1`, for which the negative logarithm of the IC50 (pIC50) in assay [1] was 5.40; in [2], 6.60.

Consider `O=C1/C(=C/c2ccc(Cl)cc2)N=C(c2ccccc2)N1c1ccc(-c2nc3ccccc3o2)cc1`, for which the pIC50 was 7.70 in [3] and 6.60 in assay [4].

For the molecule `C=C1CC[C@@H]2[C@H](CC2(C)C)C(=C)CC[C@H]1O`, the IC50 with DLD-1 is 52.5 µg/mL (≈ 238 µM); in the assay with MCF7, 82 µg/mL (≈ 372 µM). The pIC50 in [5] and in [6] was 3.40 in each case.

As for `CC[C@H](CO)[C@@](C)(O)C/C=C/C(C)(C)OC(=O)C[C@]1(C)C=CC[C@@H](C)[C@@]12C=CC(C)(CC)O2` (stereo not given in full), the results for the pIC50 in assay [7] and in assay [9] were 2.79 and 2.85, respectively. In [8], the IC50 turned out to be 540 µg/mL (≈ 1170 µM).

For `CCC[C@H](O)CCOC(=O)CC[C@]1(C)C=CC[C@@H](C)[C@@]12C=CC(C)(CC)O2` (stereo not given in full), the negative-log IC50 (pIC50) in assay [7] was 2.69; in assay [9], 2.73. In addition, the half-maximal inhibitory concentration (IC50) in assay [8] was 590 µg/mL (≈ 1560 µM).

For the molecule `Cc1ccc(-c2nc(N(c3ccccc3)c3ccccc3)sc2C(=O)c2cccs2)cc1`, the values for the pIC50 in [10] and in [11] were 5.26 and 6.42, respectively. Further, the Ratio IC50 in the assay listed under Homo sapiens came out at 61.7. The Activity in the assay with Rattus norvegicus stood at 60.82%.

In the case of `COc1cc(/C=C/c2ccc(O)cc2)cc(OC)c1` [PTEROSTILBENE], the results for the pIC50 in [1] and in [2] were 5.79 and 5.22, respectively.
